Results as given in paper PMC4661905, “A Mechanism of O-Demethylation of Aristolochic Acid I by Cytochromes P450 and Their Contributions to This Reaction in Human and Rat Livers: Experimental and Theoretical Approaches” (International Journal of Molecular Sciences, 2015).

Tests used:
CYP2C9 [1] = details: CYP2C9, with vs without cytochrome b5; cited from earlier work
CYP2C subfamily = test: Contribution of CYP to AAI oxidation in rat liver; assay type: in vitro ADME
Experimental: (§1) In order to calculate the contributions of individual CYPs to AAI oxidation in human and rat livers, we utilized the velocities of AAI oxidation to AAIa by the Supersomal CYP enzyme systems containing cytochrome b5 (Figure 2) in the combination with the data on the expression levels of CYPs in human and rat livers. The contributions of these enzymes were calculated by relative activity factor because the activities of CYP in Supersomes™ should be considered in addition to the relative contents of CYPs in the livers. Therefore, the contributions of each CYP that oxidizes AAI in livers were calculated by dividing of the relative activity of each of such CYPs oxidizing AAI [r.a.cypi] (rate of AAI oxidation multiplied by amounts of this CYP in tissues examined), by the total relative activities (∑[r.a.cypi]) of all CYPs oxidizing this substrate. Of human liver CYPs, CYP3A4 is the major enzyme present in this human organ (~30% of the CYP hepatic complement), followed by CYP2C9 and 1A2 (~15% and ~13%, respectively), while CYP2C19, 2E1 2A6, 2D6, 2C8, and 3A5 are present in human liver in levels of the range of ~8.5%–~2.5% of the liver CYPs (see [58] for an overview). CYPs of the 2C subfamily (CYP2C6, 2C11, 2C12, and 2C13) are the major enzymes expressed in rat livers accounting of ~55% of the CYP complement. Of the CYP2C complement, ~50% and ~20% correspond to CYP2C11 and 2C6, respectively. Of the other CYPs, CYP2E1, 3A, 2D, 2A, 2B, and 1A enzymes are also present in rat livers, expressed in levels of ~15%, ~10%, ~7%, ~6%, ~5%, and ~2%, respectively.

CYP1A1 [2] = test: Contribution of CYP to AAI oxidation in rat liver; assay type: in vitro ADME
Experimental: as §1

CYP1A subfamily = test: Contribution of CYP to AAI oxidation in rat liver; assay type: in vitro ADME
Experimental: as §1

CYP2C11 = test: Contribution of CYP to AAI oxidation in rat liver; assay type: in vitro ADME
Experimental: as §1

CYP2C6 = test: Contribution of CYP to AAI oxidation in rat liver; assay type: in vitro ADME
Experimental: as §1

CYP3A4 = test: Contribution of CYP to AAI oxidation in human liver; assay type: in vitro ADME; details: from Supersomal velocities with cytochrome b5 and CYP expression levels
Experimental: as §1

CYP1A1 [3] = test: as above; assay type: in vitro ADME; details: from Supersomal velocities with cytochrome b5 and CYP expression levels
Experimental: as §1

CYP2C19 = test: as above; assay type: in vitro ADME
Experimental: as §1

CYP2C9 [4] = test: as above; assay type: in vitro ADME; details: from Supersomal velocities with cytochrome b5 and CYP expression levels
Experimental: as §1

CYP1B1 = test: as above; assay type: in vitro ADME
Experimental: as §1

CYP2D6 = test: as above; assay type: in vitro ADME
Experimental: as §1

CYP2B6 = test: as above; assay type: in vitro ADME
Experimental: as §1

CYP1A2 = test: as above; assay type: in vitro ADME; details: from Supersomal velocities with cytochrome b5 and CYP expression levels
Experimental: as §1

CYP2C8 = test: as above; assay type: in vitro ADME
Experimental: as §1

CYP3A5 = test: as above; assay type: in vitro ADME
Experimental: as §1

CYP2E1 = test: as above; assay type: in vitro ADME
Experimental: as §1

human CYP1A2 = details: CYP1A2, with vs without cytochrome b5; cited from earlier work
[5] = test system: CYP enzymes of liver microsomes that oxidise (demethylate) AAI to AAIa; test: Effect of CYP inhibitors on AAI oxidation to AAIa by rat liver microsomes; assay type: in vitro ADME; details: male, Wistar, pH 7.4, probe AAI (10 μM), inhibitor 10 μM equimolar to AAI (10 μM), 0.1 nmol CYP, mean ± SD, n = 3, NI = no inhibition, read-out: AAIa Formation (% of Control without Inhibitor) Rat Microsomes
Experimental: Microsomal fractions were prepared from livers of ten male Wistar rats (AnLab, Prague, Czech Republic) by differential centrifugation as described previously.
(§2) Incubation mixtures (250 μL) contained 100 mM potassium phosphate buffer (pH 7.4), 1 mM NADPH, 1 mg human or rat liver microsomal protein and 10 μM AAI [30, 43]. […] Control incubations were performed (i) without microsomal proteins; (ii) without NADPH; or (iii) without AAI. […] For Supersomes™, incubation mixtures (final volume 250 μL) consisted of 100 mM potassium phosphate buffer (pH 7.4), 1 mM NADP^+, 10 mM MgCl2, 10 mM D-glucose 6-phosphate, 1 U/mL D-glucose 6-phosphate dehydrogenase (NADPH-generating system), 50 nM CYPs in Supersomes™, and 10 μM AAI. Supersomes™ with POR alone were utilized as controls. AAI and its metabolites (i.e., AAIa) were extracted from incubation mixtures with 2 × 1 mL of ethyl acetate and evaporated to dryness; residues were dissolved in 30 μL of methanol and analyzed with reverse-phase HPLC as described.
(§3) Compounds were dissolved in 2.5 μL methanol (except for DDTC that was dissolved in distilled water) to yield final concentrations of 10 μM in the incubation mixtures. Inhibitors (10 μM) were incubated at 37 °C for 10 min with the NADPH-generating system prior to addition of 10 μM AAI, and then incubated for an additional 20 min at 37 °C. AAIa formation was analyzed by HPLC as described above.

[6] = test system: CYP enzymes of liver microsomes that oxidise (demethylate) AAI to AAIa; test: Effect of CYP inhibitors on AAI oxidation to AAIa by human liver microsomes; assay type: in vitro ADME; details: pH 7.4, probe AAI (10 μM), inhibitor 10 μM equimolar to AAI (10 μM), 0.1 nmol CYP, mean ± SD, n = 3, NI = no inhibition, read-out: AAIa Formation (% of Control without Inhibitor) Human Microsomes
Experimental: as §2, §3

COc1cccc2c1cc([N+](=O)[O-])c1c(C(=O)O)cc3c(c12)OCO3 [AAI, aristolochic acid I]
Increase in AAIa formation by cytochrome b5 (CYP2C9 [1]): not significant | Contribution to AAI oxidation to AAIa (CYP2C subfamily): ~ 83% | Contribution to AAI oxidation to AAIa (CYP1A1 [2]): ~ 1.7% | Contribution to AAI oxidation to AAIa (CYP1A subfamily): ~ 17% | Contribution to AAI oxidation to AAIa (CYP2C11): ~ 42% | Contribution to AAI oxidation to AAIa (CYP2C6): ~ 17% | Contribution to AAI oxidation to AAIa (CYP3A4): ~ 10.5% | Contribution to AAI oxidation to AAIa (CYP1A1 [3]): ~ 8.3% | Contribution to AAI oxidation to AAIa (CYP2C19): ~ 0.6% | Contribution to AAI oxidation to AAIa (CYP2C9 [4]): ~ 15.8% | Contribution to AAI oxidation to AAIa (CYP1B1): negligible | Contribution to AAI oxidation to AAIa (CYP2D6): negligible | Contribution to AAI oxidation to AAIa (CYP2B6): negligible | Contribution to AAI oxidation to AAIa (CYP1A2): ~ 47.5% | Contribution to AAI oxidation to AAIa (CYP2C8): ~ 1.0% | Contribution to AAI oxidation to AAIa (CYP3A5): negligible | Contribution to AAI oxidation to AAIa (CYP2E1): ~ 1.1% | Increase in AAIa formation by cytochrome b5 (human CYP1A2): not significant

Nc1ccc(S(=O)(=O)Nc2ccnn2-c2ccccc2)cc1 [Sulfaphenazole, sulfaphenazole]
activity at 20 min, 10 μM [5]: 68 ± 3% | activity at 20 min, 10 μM [6]: > 100%

C=C[C@H]1C[N@@]2CC[C@H]1C[C@@H]2[C@@H](O)c1ccnc2ccc(OC)cc12 [Quinidine, quinidine]
activity at 20 min, 10 μM [5]: > 100% | activity at 20 min, 10 μM [6]: > 100%

Cc1nc2c([nH]1)c(=O)n(C)c(=O)n2Cc1ccco1 [Furafylline, furafylline]
activity at 20 min, 10 μM [5]: 84 ± 5% | activity at 20 min, 10 μM [6]: 75 ± 4%

CCN(CC)C(=S)S [DDTC, diethyldithiocarbamate]
activity at 20 min, 10 μM [5]: 52 ± 4% | activity at 20 min, 10 μM [6]: 96 ± 5%

O=c1cc(-c2ccccc2)oc2c1ccc1ccccc12 [α-Napththoflavone, α-Naphthoflavone]
activity at 20 min, 10 μM [5]: 85 ± 5% | activity at 20 min, 10 μM [6]: 89 ± 5%
